Test results as given in publication PMC12040169 (PLOS Biology, 2025).

Assay: in vitro
Settings: human, hela cells, % viability

| SMILES | viability at 28.5 h, 10 µM [%] |
| --- | --- |
| Cc1cc2c(=O)n(Cc3ccco3)c(SCc3nc4ccccc4[nH]3)nc2s1 [CBK268202] | 88.2 |
| O=C(COc1ccc(S(=O)(=O)N2CCCCC2)cc1)Nc1ccc2c(c1)OCCO2 [CBK268205] | 102 |
| COC(=O)Nc1ncc(CN2CCCCC2)s1 [CBK268208] | 111 |
| Fc1ccc(COc2ccc3ccccc3c2CNc2nn[nH]n2)cc1 [CBK268211] | 86.9 |
| CCc1ccc(OC)c(S(=O)(=O)N2CCOCC2)c1 [CBK268214] | 117 |
| CC(=O)NCCc1nc2cc(NC(=O)Nc3ccccc3)ccc2n1C [CBK268216] | 103 |
| Cc1ccc(SCc2ccc(C(=O)Nc3ccccc3C(=O)N3CCCC3)cc2)cc1 [CBK268217] | 112 |
| COc1ccccc1-c1nn2c(Cn3cnc4ccccc43)nnc2s1 [CBK268218] | 93 |
| CSc1nc2ccc(S(=O)(=O)NCCOc3ccc(Cl)cc3)cc2s1 [CBK268219] | 81.9 |
| COc1ccc(S(=O)(=O)N(C)CC(=O)N2CCN(Cc3ccccc3)CC2)cc1C [CBK268221] | 99.6 |
| COc1ccc(C)cc1NC(=O)CN(c1ccccc1)S(=O)(=O)c1ccc(F)cc1 [CBK268223] | 99.1 |
| CCn1nnnc1NCc1ccc(OCc2ccc(F)cc2Cl)c(OC)c1 [CBK268224] | 112 |
| Cc1ccc(CCNc2c([N+](=O)[O-])nn(-c3ccc4c(c3)OCCO4)[n+]2[O-])cc1 [CBK268225] | 103 |
| Cc1nn(Cc2ccc(F)cc2)c(C)c1NC(=O)c1cnn2c(C(F)(F)F)cc(-c3ccccc3)nc12 [CBK268231] | 96.7 |
| CC(C)c1ccc(NC(=O)CSc2nnc(CN3CCOCC3)n2C)cc1 [CBK268235] | 93.7 |
| COC(=O)c1ccc2c(=O)n(CCc3ccc(S(N)(=O)=O)cc3)c(=S)[nH]c2c1 [CBK268238] | 91.2 |
| O=C(CSc1ccc2ccccc2c1)Nc1ccc(Cl)c(C(=O)O)c1 [CBK268239] | 103 |
| O=C(O)CCN1C(=O)c2ccc(NC(=O)Cc3cccs3)cc2C1=O [CBK268240] | 95.9 |
| CCc1cc(-c2n[nH]c(C(=O)O)c2-c2nc(C)cs2)c(O)cc1O [CBK268247] | 99.4 |
| CN1CCN(C(=O)COc2ccc(S(=O)(=O)Nc3ccc(Cl)cc3)cc2)CC1 [CBK268248] | 102 |
| CC(Cc1c[nH]c2ccccc12)NC(=N)NC(=N)N (stereo not shown) [CBK268251C] | 91.7 |
| COc1cc(NC(=O)COc2cccc3ccccc23)c(C(=O)O)cc1OC [CBK268253] | 76.6 |

| SMILES | viability at 28.5 h, 10 µM [%] |
| --- | --- |
| Cc1cc(C)cc(Nc2c([N+](=O)[O-])nn(-c3cccc(Cl)c3)[n+]2[O-])c1 [CBK268254] | 105 |
| CCNS(=O)(=O)c1ccc(CCC(=O)Nc2ccc3c(c2)OCCO3)cc1 [CBK268255] | 109 |
| COc1ccccc1NC(=O)Cn1cc(C(=O)c2cccs2)c2ccccc21 [CBK268256] | 98.6 |
| CCNS(=O)(=O)c1ccc(NS(=O)(=O)Cc2ccccc2)cc1 [CBK268257] | 100 |
| Cc1ccc(-c2nnc3sc(-c4cnccn4)nn23)cc1 [CBK268258] | 98.9 |
| Cn1c(CN2CCN(C(=O)Nc3ccccc3)CC2)nc2cc([N+](=O)[O-])ccc21 [CBK268260] | 91.8 |
| c1csc(-c2nn3c(Cn4cnc5ccccc54)nnc3s2)c1 [CBK268262] | 87.9 |
| O=S(=O)(Nc1ccc(Cc2ccncc2)cc1)N1CCCC1 [CBK268263] | 112 |
| COc1ccc(-c2noc(CSc3nc4sc(C)c(C)c4c(=O)n3-c3ccccc3)n2)cc1 [CBK268264] | 100 |
| COc1ccc(-c2nc(NCc3ccccc3)n(C(=O)c3ccc([N+](=O)[O-])cc3)n2)cc1 [CBK268265] | 92.8 |
| Clc1ccc2nc(SCc3csc(Nc4ccccc4)n3)oc2c1 [CBK268269] | 100 |
| COc1ccc([N+](=O)[O-])cc1NC(=O)CSCc1ccc(Br)cc1 [CBK268272] | 90.9 |
| O=[N+]([O-])c1ccc(/C=C/c2nn3c(Cn4cnc5ccccc54)nnc3s2)cc1 [CBK268273] | 104 |
| COC(=O)c1ccc(NC(=O)CN2CCC(C(N)=O)(N3CCCCC3)CC2)cc1 [CBK268275] | 95.5 |
| Nc1nonc1C(=O)NCCNc1ccc([N+](=O)[O-])cn1 [CBK268279] | 97.7 |
| O=C(Nc1ccc(O)c(C(=O)O)c1)c1ccc2c(c1)C(=O)N(CC1CCCO1)C2=O (stereo not shown) [CBK268280] | 101 |
| Cn1c(/C=C/C=C/CN2CCN(Cc3ccccc3)CC2)nc2ccc([N+](=O)[O-])cc21 [CBK268281] | 91.2 |
| O=C(O)c1cc(C(=O)O)n(Cc2ccc(Cl)cc2Cl)n1 [CBK268283] | 103 |
| CN1CCN(NC(=O)C23CCC(C)(C(=O)O2)C3(C)C)CC1 (stereo not shown) [CBK268285] | 99.1 |
| Cc1cc(S(=O)(=O)N2CCCC2)ccc1OCC(=O)O [CBK268289] | 89 |
| Cc1cc2c(=O)n(Cc3ccco3)c(SCc3cc(O)[nH]n3)nc2s1 [CBK268291] | 94.3 |
| COc1ccc(C(=O)NC(=S)Nc2ccccc2N2CCN(C)CC2)cc1[N+](=O)[O-] [CBK268292C] | 87 |

| SMILES | viability at 28.5 h, 10 µM [%] |
| --- | --- |
| O=C(COc1ccc(S(=O)(=O)N2CCc3ccccc32)cc1Cl)NCc1ccco1 [CBK268293] | 102 |
| O=C(CN1C(=O)COc2ccc(Cl)cc21)Nc1ccc2[nH]c(=O)[nH]c2c1 [CBK268295] | 111 |
| S=C(NCCc1ccccn1)NCCN1CCOCC1 [CBK268296] | 101 |
| Cc1cc(C)nc(SCC(=O)Nc2ccc(S(=O)(=O)NC3CCCCC3)cc2)n1 [CBK268299] | 86 |
| CCC(c1nc2ccccc2c(=O)n1-c1cccnc1)N1C(=O)c2ccccc2C1=O (stereo not shown) [CBK268300] | 99.1 |
| O=c1c2c3c(sc2nc(SCc2cc(O)[nH]n2)n1Cc1ccco1)CCC3 [CBK268301] | 99.4 |
| Cc1cc(C)c(NC(=O)CSCc2cc(O)[nH]n2)c(Cl)c1 [CBK268302] | 93.8 |
| CN1CCN(C(=O)CCc2nc(-c3ccc(Cl)cc3)no2)CC1 [CBK268304] | 117 |
| O=c1c2c3c(sc2nc(SCc2nc4ccccc4[nH]2)n1Cc1ccco1)CCC3 [CBK268306] | 104 |
| Cc1cc(C)c2c(CC(=O)NCCCN3CCOCC3)coc2c1 [CBK268307] | 96.8 |
| CCOc1ccc(NC(=O)C(C)O)c(NS(=O)(=O)c2ccc3ccccc3c2)c1 (stereo not shown) [CBK268309] | 87.6 |
| CS(=O)(=O)N1CCc2cc(S(=O)(=O)N3CCN(c4ccc([N+](=O)[O-])c(NCc5ccccc5)c4)CC3)ccc21 [CBK268311] | 102 |
| Cn1c(CN2CCCC2)nc2cc(NC(=O)c3cccc([N+](=O)[O-])c3)ccc21 [CBK268316] | 98.6 |
| CN(C)S(=O)(=O)N(CC(=O)NCc1ccncc1)c1ccccc1 [CBK268322] | 111 |
| N=c1c2c3c(sc2ncn1CCCN1CCOCC1)CCCC3 [CBK268323] | 94.6 |
| O=C(CCS(=O)(=O)Cc1ccccc1)n1nnc2ccccc21 [CBK268324] | 99.4 |
| O=C(O)C1CCN(c2ncnc3sc4c(c23)CCC4)CC1 [CBK268326] | 98.9 |
| O=C1c2ccccc2C(=O)N1CCc1nc2c3c4c(sc3ncn2n1)CCCCC4 [CBK268327] | 96.6 |
| c1ccc(OCc2nn3c(Cn4nnc5ccccc54)nnc3s2)cc1 [CBK268330] | 95.9 |
| Cc1ccc(C(=O)O)cc1NC(=O)C(C)Oc1cccc(Cl)c1 (stereo not shown) [CBK268331] | 95.7 |
| COc1cc2[nH]c(=S)n(CCc3c[nH]cn3)c(=O)c2cc1OC [CBK268333] | 102 |
| CSc1nsc(SCc2cnc(C)nc2N)n1 [CBK268337] | 105 |

| SMILES | viability at 28.5 h, 10 µM [%] |
| --- | --- |
| COC(=O)COc1ccc(NC(=O)c2ccc([N+](=O)[O-])c(C)c2)cc1 [CBK268338] | 103 |
| CC1CCN(S(=O)(=O)c2ccc(NC(=O)CN3CCOCC3)cc2)CC1 [CBK268339] | 81.4 |
| O=C(CCc1nc(-c2ccccc2F)no1)Nc1ccccc1[N+](=O)[O-] [CBK268341] | 86.9 |
| CN1CCN(c2ccccc2NC(=O)c2cccc(OCc3ccccc3)c2)CC1 [CBK268345] | 102 |
| O=C(Nc1ccc(S(=O)(=O)N2CCCCC2)cc1)c1ccc(NS(=O)(=O)c2ccccc2)cc1 [CBK268348] | 88.3 |
| Cc1nnc(SCC(=O)n2c3c(c4ccccc42)CCCC3)n1C [CBK268351] | 111 |
| COc1ccc(CCNS(=O)(=O)c2ccc(C3CNC(=O)C3)cc2)cc1OC (stereo not shown) [CBK268352] | 112 |
| Cc1ccc(S(=O)(=O)NC(C)(C)CSc2ccccc2)cc1 [CBK268354] | 88.6 |
| COc1cc2c(cc1NS(=O)(=O)N1CCCCC1)oc1ccccc12 [CBK268355] | 85.8 |
| O=C(CSc1nnc2c(n1)[nH]c1ccccc12)NCCOc1ccccc1 [CBK268358] | 101 |
| Cn1c(COc2ccc(Cl)cc2Cl)nnc1SCC(=O)N1c2ccccc2SC2C=CC=CC21 (stereo not shown) [CBK268359] | 103 |
| Cc1nc2ccccc2nc1CSc1nnc(Cc2ccccc2)n1-c1ccccc1 [CBK268360] | 104 |
| Cc1cccc(C(=O)O)c1NC(=O)Cc1cccc2ccccc12 [CBK268361] | 111 |
| Cn1c(CN2CCN(S(C)(=O)=O)CC2)nc2cc([N+](=O)[O-])ccc21 [CBK268362] | 98.4 |
| COC(=O)c1c(C)n(CCCNc2ccc([N+](=O)[O-])cc2Cl)c2ccc(O)cc12 [CBK268363] | 86.2 |
| NC(=O)C1(N2CCCCC2)CCN(CC(=O)Nc2ccc(Br)cc2)CC1 [CBK268364] | 86.2 |
| O=C(Nc1ccc(Cc2ccc(NC(=O)c3ccccc3F)c(O)c2)cc1O)c1ccccc1F [CBK268366] | 90.4 |
| CCNS(=O)(=O)c1ccc(CCC(=O)Nc2ccc3c(c2)OCO3)cc1 [CBK268367] | 101 |
| Cc1cc(C)n2c(SCC(C)(C)NS(=O)(=O)c3ccccc3)nnc2n1 [CBK268369] | 111 |
